Laboratory results published in US10428063B2 (Bayer Pharma Aktiengesellschaft, priority 2015, dated 2019).

Target: catalytic domain of human Bub1 (amino acids 704-1085) (Homo sapiens (Human), UniProt O43683)
Assay: Bub1 kinase assay (TR-FRET)
Type: biochemical
Conditions: 10 μM ATP, 1 μM peptide substrate, recombinant catalytic domain of human Bub1, read-out: Bub1 kinase assay median IC50
Description: Bub1-inhibitory activities of compounds described in the present invention were quantified using a time-resolved fluorescence energy transfer (TR-FRET) kinase assay which measures phosphorylation of the synthetic peptide Biotin-Ahx-VLLPKKSFAEPG (C-terminus in amide form), purchased from e.g. Biosyntan (Berlin, Germany) by the (recombinant) catalytic domain of human Bub1 (amino acids 704-1085), expressed in Hi5 insect cells with an N-terminal His6-tag and purified by affinity- (Ni-NTA) and size exclusion chromatography.
In a typical assay 11 different concentrations of each compound (0.1 nM, 0.33 nM, 1.1 nM, 3.8 nM, 13 nM, 44 nM, 0.15 μM, 0.51 μM, 1.7 μM, 5.9 μM and 20 μM) were tested in duplicate within the same microtiter plate. To this end, 100-fold concentrated compound solutions (in DMSO) were previously prepared by serial dilution (1:3.4) of 2 mM stocks in a clear low volume 384-well source microtiter plate (Greiner Bio-One, Frickenhausen, Germany), from which 50 nl of compounds were transferred into a black low volume test microtiter plate from the same supplier. Subsequently, 2 μl of Bub1 (the final concentration of Bub1 was adjusted depending on the activity of the enzyme lot in order to be within the linear dynamic range of the assay: typically ˜200 ng/ml were used) in aqueous assay buffer [50 mM Tris/HCl pH 7.5, 10 mM magnesium chloride (MgCl2), 200 mM potassium chloride (KCl), 1.0 mM dithiothreitol (DTT), 0.1 mM sodium ortho-vanadate, 1% (v/v) glycerol, 0.01% (w/v) bovine serum albumine (BSA), 0.005% (v/v) Trition X-100 (Sigma), 1× Complete EDTA-free protease inhibitor mixture (Roche)] were added to the compounds in the test plate and the mixture was incubated for 15 min at 22° C. to allow pre-equilibration of the putative enzyme-inhibitor complexes before the start of the kinase reaction, which was initiated by the addition of 3 μl 1.67-fold concentrated solution (in assay buffer) of adenosine-tri-phosphate (ATP, 10 μM final concentration) and peptide substrate (1 μM final concentration). The resulting mixture (5 μl final volume) was incubated at 22° C. during 60 min., and the reaction was stopped by the addition of 5 μl of an aqueous EDTA-solution (50 mM EDTA, in 100 mM HEPES pH 7.5 and 0.2% (w/v) bovine serum albumin) which also contained the TR-FRET detection reagents (0.2 μM streptavidin-XL665 [Cisbio Bioassays, Codolet, France] and 1 nM anti-phosho-Serine antibody [Merck Millipore, cat. #35-002] and 0.4 nM LANCE EU-W1024 labeled anti-mouse IgG antibody [Perkin-Elmer, product no. AD0077, alternatively a Terbium-cryptate-labeled anti-mouse IgG antibody from Cisbio Bioassays can be used]). The stopped reaction mixture was further incubated 1 h at 22° C. in order to allow the formation of complexes between peptides and detection reagents. Subsequently, the amount of product was evaluated by measurement of the resonance energy transfer from the Eu-chelate-antibody complex recognizing the Phosphoserine residue to the streptavidin-XL665 bound to the biotin moiety of the peptide. To this end, the fluorescence emissions at 620 nm and 665 nm after excitation at 330-350 nm were measured in a TR-FRET plate reader, e.g. a Rubystar or Pherastar (both from BMG Labtechnologies, Offenburg, Germany) or a Viewlux (Perkin-Elmer) and the ratio of the emissions (665 nm/622 nm) was taken as indicator for the amount of phosphorylated substrate. The data were normalised using two sets of control wells for high- (=enzyme reaction without inhibitor=0%=Minimum inhibition) and low- (=all assay components without enzyme=100%=Maximum inhibition) Bub1 activity. IC50 values were calculated by fitting the normalized inhibition data to a 4-parameter logistic equation (Minimum, Maximum, IC50, Hill; Y=Max+(Min−Max)/(1+(X/IC50)Hill)).

Chain of catalytic domain of human Bub1 (amino acids 704-1085) (O43683 704-1085): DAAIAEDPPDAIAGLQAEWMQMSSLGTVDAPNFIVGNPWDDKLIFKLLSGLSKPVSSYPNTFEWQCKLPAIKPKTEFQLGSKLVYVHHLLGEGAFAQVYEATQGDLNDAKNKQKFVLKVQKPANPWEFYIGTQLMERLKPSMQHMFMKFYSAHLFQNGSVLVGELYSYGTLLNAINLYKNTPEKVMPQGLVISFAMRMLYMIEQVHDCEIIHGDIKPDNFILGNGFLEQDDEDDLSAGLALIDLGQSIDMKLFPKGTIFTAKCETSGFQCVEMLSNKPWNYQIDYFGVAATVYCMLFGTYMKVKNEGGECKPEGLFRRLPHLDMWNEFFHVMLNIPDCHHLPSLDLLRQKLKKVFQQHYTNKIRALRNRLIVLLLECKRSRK

SMILES	IC50 [nM]
O=C1NCCc2[nH]c(-c3ccncc3OCC(F)F)c(Nc3cccc(F)c3)c21 [Example 41, 2-[3-(2,2-difluoroethoxy)pyridin-4-yl]-3-[(3-fluorophenyl)amino]-1,5,6,7-tetrahydro-4H-pyrrolo[3,2-c]pyridin-4-one]	36.8
CN1CCc2[nH]c(-c3ccnc(N)c3)c(Nc3ccccc3)c2C1=O [Example 21, 2-(2-aminopyridin-4-yl)-5-methyl-3-(phenylamino)-1,5,6,7-tetrahydro-4H-pyrrolo[3,2-c]pyridin-4-one]	170
O=C1NCCc2[nH]c(-c3ccncc3)c(Nc3ccc(F)cc3)c21 [Example 7, 3-[(4-fluorophenyl)amino]-2-(pyridin-4-yl)-1,5,6,7-tetrahydro-4H-pyrrolo[3,2-c]pyridin-4-one]	19.8
Cc1cnccc1-c1[nH]c2c(c1Nc1ccccc1)C(=O)NCC2 [Example 3, 2-(3-methylpyridin-4-yl)-3-(phenylamino)-1,5,6,7-tetrahydro-4H-pyrrolo[3,2-c]pyridin-4-one]	244
CN1CCc2[nH]c(-c3ccncc3OCC(F)(F)F)c(Nc3ccccc3)c2C1=O [Example 30, 5-methyl-3-(phenylamino)-2-[3-(2,2,2-trifluoroethoxy)pyridin-4-yl]-1,5,6,7-tetrahydro-4H-pyrrolo[3,2-c]pyridin-4-one]	84.3
CC1(C)Cc2[nH]c(-c3ccncc3)c(Nc3ccccc3)c2C(=O)N1 [Example 1, 6,6-dimethyl-3-(phenylamino)-2-(pyridin-4-yl)-1,5,6,7-tetrahydro-4H-pyrrolo[3,2-c]pyridin-4-one]	11.6
CCn1c2c(c(Nc3ccccc3)c1-c1ccncc1)C(=O)NCC2 [Example 5, 1-ethyl-3-(phenylamino)-2-(pyridin-4-yl)-1,5,6,7-tetrahydro-4H-pyrrolo[3,2-c]pyridin-4-one]	35.1
CN1CCc2[nH]c(-c3ccncc3OC[C@H]3CCOC3)c(Nc3ccccc3)c2C1=O [Example 34, 5-methyl-3-(phenylamino)-2-{3-[(3S)-tetrahydrofuran-3-ylmethoxy]pyridin-4-yl}-1,5,6,7-tetrahydro-4H-pyrrolo[3,2-c]pyridin-4-one]	22.5
COCCOc1cnccc1-c1[nH]c2c(c1Nc1ccc(F)cc1)C(=O)NCC2 [Example 46, 3-[(4-fluorophenyl)amino]-2-[3-(2-methoxyethoxy)pyridin-4-yl]-1,5,6,7-tetrahydro-4H-pyrrolo[3,2-c]pyridin-4-one]	32.8
COc1cnccc1-c1[nH]c2c(c1Nc1ccccc1)C(=O)N(C)CC2 [Example 22, 2-(3-methoxypyridin-4-yl)-5-methyl-3-(phenylamino)-1,5,6,7-tetrahydro-4H-pyrrolo[3,2-c]pyridin-4-one]	26.9
CC(C)(C)OC(=O)N1CCc2[nH]c(-c3ccncc3)c(Nc3ccccc3)c2C1=O [Example 6, tert-butyl 4-oxo-3-(phenylamino)-2-(pyridin-4-yl)-1,4,6,7-tetrahydro-5H-pyrrolo[3,2-c]pyridine-5-carboxylate]	10.9
Cc1cc(-c2[nH]c3c(c2Nc2ccccc2)C(=O)NCC3)ccn1 [Example 12, 2-(2-methylpyridin-4-yl)-3-(phenylamino)-1,5,6,7-tetrahydro-4H-pyrrolo[3,2-c]pyridin-4-one]	15.4
CN1CCc2[nH]c(-c3ccnc(NC(=O)C4CC4)c3)c(Nc3ccccc3)c2C1=O [Example 24]	15.3
CCn1c2c(c(Nc3ccccc3)c1-c1ccnc(C)c1)C(=O)NCC2 [Example 13, 1-ethyl-2-(2-methylpyridin-4-yl)-3-(phenylamino)-1,5,6,7-tetrahydro-4H-pyrrolo[3,2-c]pyridin-4-one]	972
O=C1NCCc2[nH]c(-c3ccncc3OCC(F)F)c(Nc3ccc(F)c(F)c3)c21 [Example 43, 2-[3-(2,2-difluoroethoxy)pyridin-4-yl]-3-[(3,4-difluorophenyl)amino]-1,5,6,7-tetrahydro-4H-pyrrolo[3,2-c]pyridin-4-one]	136
CN1CCc2[nH]c(-c3ccncc3OCCC(F)(F)F)c(Nc3ccccc3)c2C1=O [Example 33, 5-methyl-3-(phenylamino)-2-[3-(3,3,3-trifluoropropoxy)pyridin-4-yl]-1,5,6,7-tetrahydro-4H-pyrrolo[3,2-c]pyridin-4-one]	51.8
COCCn1c2c(c(Nc3ccccc3)c1-c1ccncc1)C(=O)NCC2 [Example 9, 1-(2-methoxyethyl)-3-(phenylamino)-2-(pyridin-4-yl)-1,5,6,7-tetrahydro-4H-pyrrolo[3,2-c]pyridin-4-one]	354
CCn1c2c(c(Nc3ccccc3)c1-c1ccnc(NC(C)=O)c1)C(=O)NCC2 [Example 15, N-{4-[1-ethyl-4-oxo-3-(phenylamino)-4,5,6,7-tetrahydro-1H-pyrrolo[3,2-c]pyridin-2-yl]pyridin-2-yl}acetamide]	79
O=C1NCCc2[nH]c(-c3ccncc3)c(Nc3ccccc3)c21 [Example 2, 3-(phenylamino)-2-(pyridin-4-yl)-1,5,6,7-tetrahydro-4H-pyrrolo[3,2-c]pyridin-4-one]	7.89
